The METLIN SMRT retention time set (Domingo-Almenara et al. 2019)

Assay: gradient 5% acetonitrile 3 min, to 50% in 2 min, to 85% in 15 min, held 3 min, 100 µL/min
Conditions: column: Zorbax Extend-C18 2.1 x 50 mm; eluents: water / acetonitrile, 0.1% formic acid
Outline: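 In both positive and negative ionization mode, a quadrupole time-of-flight mass spectrometer coupled to HPLC analyzed pure standards run in mixtures of ~100 molecules. The Zorbax Extend-C18 column (2.1 × 50 mm, 1.8 μm) was operated at 100 μL/min with water and acetonitrile, each containing 0.1% formic acid. The dead volume was 40 μL and the dwell volume 900 μL. Retention time came from adduct peaks that were computationally picked and individually inspected by hand.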
Compound `CCOc1ccc(NC(=O)C2CCN(S(=O)(=O)c3ccc4c(c3)NC(=O)CO4)CC2)cc1` has an RP-LC retention time of 801 s.
For `O=C(NCC1CCCCC1)c1cccc(CN2C(=O)C3CCCN3C(=O)c3ccccc32)c1` (stereo unspecified), the RP-LC retention time was 846 s.
`COc1ccc(-c2c(C)noc2NC(C)=O)cc1S(=O)(=O)Nc1ccccc1F` showed an RP-LC retention time of 783 s.
Work on `O=C(O)CCC(=O)Nc1sc2c(c1C(=O)Nc1ccccc1)CCC2` yielded an RP-LC retention time of 902 s.
Work on `O=C(CN1CC=C(c2cnn(-c3ccccc3)c2)CC1)NCc1ccco1` yielded an RP-LC retention time of 646 s.
Compound `CSc1ccc(-c2nc3cnccn3c2Nc2ccccc2)cc1` has an RP-LC retention time of 930 s.
With `CCOc1nc2ccccc2nc1N1CCCC(C(=O)Nc2ccc(C(C)C)cc2)C1` (stereo unspecified) the RP-LC retention time was 1240 s.
`Cc1ccc(CNC(=O)c2ccc3c(c2)CC(=O)N3C)cc1` gave an RP-LC retention time of 730 s.
In the case of `CCc1ccccc1NC(=O)c1c(O)c2cccnc2n(-c2cccc(F)c2)c1=O`, the RP-LC retention time is reported as 1320 s.
For `COCCN1C(=O)[C@H]2CN(Cc3ccc(F)cc3Cl)C[C@H]2C1=O`, the RP-LC retention time was 693 s.
Work on `CCN1CCN(C(=O)c2ccc(S(=O)(=O)c3ccccc3)s2)CC1` yielded an RP-LC retention time of 617 s.
Compound `CC(C)Cn1cc(CCNS(=O)(=O)c2ccc(Cl)c(Cl)c2)c2cccnc21` has an RP-LC retention time of 1060 s.
For `CCOc1ccc(NC(=O)NCCc2cn(C)c3ncccc23)cc1`, the RP-LC retention time was 676 s.
`O=C(NCc1ccc(F)cc1Cl)c1ccc2c(c1)ncn2CCN1CCCC1` showed an RP-LC retention time of 598 s.
Work on `Cc1ccc(CNC(=O)C(=O)NCCO)cc1` yielded an RP-LC retention time of 600 s.
`CCOc1ccccc1C(=O)NCC1CCN(Cc2ccccn2)CC1` showed an RP-LC retention time of 561 s.
Compound `Cc1cc(C)c(S(=O)(=O)N2CCc3nn(CC(C)C)c(=O)n3CC2)c(C)c1` has an RP-LC retention time of 664 s.
In the case of `CCCNC(=O)C1CCN(c2ccc(SCC(=O)NCc3ccccc3Cl)nn2)CC1`, the RP-LC retention time is reported as 644 s.
`Cc1ccc(C)c(-c2cc3c(=O)n(Cc4nc(-c5ccc(Cl)cc5)no4)ncn3n2)c1` gave an RP-LC retention time of 1220 s.
With `O=C(Cc1csc(Nc2cccc(C(F)(F)F)c2)n1)NCc1cccs1` the RP-LC retention time was 886 s.
`Cc1cc(=O)n(Cc2cccc(F)c2)c(N2CCSCC2)n1` gave an RP-LC retention time of 946 s.
In the case of `Cc1cccc(N2CCN(Cc3nc(-c4ccc(N5CCCC(C)C5)nc4)no3)CC2)c1` (stereo unspecified), the RP-LC retention time is reported as 1100 s.
Compound `O=c1oc2cc(O)cc(O)c2c2c1CCCC2` has an RP-LC retention time of 708 s.
For `Cn1nc2ccc(S(=O)(=O)N3CCOCC3)cn2c1=O`, the RP-LC retention time was 611 s.
For `CCn1nnc2ccc(-c3noc(-c4ccc(C#N)cc4)n3)cc21`, the RP-LC retention time was 971 s.
In the case of `O=C(NCC1CCCCC1)c1ccc(CN2C(=O)C3CCCN3C(=O)c3ccccc32)cc1` (stereo unspecified), the RP-LC retention time is reported as 824 s.
With `CCCn1ccc2sc(C)c(C(=O)NC3CC3)c2c1=O` the RP-LC retention time was 679 s.
For `Cc1ccc(CN2CC(F)(F)C[C@H]2c2nnc(-c3cnccn3)o2)c(C)c1`, the RP-LC retention time was 990 s.
Work on `O=C(CCc1csc(NC(=O)c2ccc(=O)[nH]c2)n1)NCc1ccccn1` yielded an RP-LC retention time of 542 s.
Compound `CCN1CCCn2cc(S(=O)(=O)NCc3ccc(C)cc3)cc2C1=O` has an RP-LC retention time of 778 s.
For `CSc1ccccc1NC(=O)Cc1csc(NC(=O)c2ncccn2)n1`, the RP-LC retention time was 657 s.
`COc1cccc2cc(C(=O)N3CCN(CCn4cccn4)CC3)oc12` gave an RP-LC retention time of 571 s.
For `O=C(c1nc(C2CC2)nc2c1OCCO2)N1CCCC1c1cccnc1` (stereo unspecified), the RP-LC retention time was 642 s.
`CCc1ccc(NC(=O)N2CCc3nc(C)ncc3C2)cc1` gave an RP-LC retention time of 695 s.
`COc1cccc(C(=O)CSc2ccc(-n3nc(C)cc3C)nn2)c1` gave an RP-LC retention time of 931 s.
Compound `O=C(Nc1cccc([N+](=O)[O-])c1)C(=O)N1CCN(c2cccc(Cl)c2)CC1` has an RP-LC retention time of 950 s.
Compound `CN1CCN(c2c(C(=O)c3ccccc3)cnc3cc4c(cc23)OCCO4)CC1` has an RP-LC retention time of 551 s.
In the case of `O=C(CCC[C@@H]1[C@H]2CCCN3CCC[C@@H](CN1C(=O)c1ccco1)[C@@H]23)Nc1ccccc1`, the RP-LC retention time is reported as 614 s.
With `CS(=O)(=O)N1CCCNCCNC(=O)CC1c1ccccc1` (stereo unspecified) the RP-LC retention time was 572 s.
Compound `CCOc1ccc(NC(=O)CN2C(=O)CCc3cc(Br)ccc32)cc1` has an RP-LC retention time of 926 s.
`Cc1cc2c(cc1CNC(=O)Cn1c(C)c(C#N)c3ccccc31)OCCCO2` gave an RP-LC retention time of 894 s.
Compound `Cc1cccc(N2CCN(Cc3nc(-c4ccc(N5CCCC5)nc4)no3)CC2)c1C` has an RP-LC retention time of 787 s.
In the case of `O=S(=O)(c1ccccc1-c1nc(-c2ccccc2)no1)N1CCN(c2ccccc2)CC1`, the RP-LC retention time is reported as 1220 s.
`Cc1noc2nc(C)n(CC(=O)NCc3ccc(Cl)cc3)c(=O)c12` showed an RP-LC retention time of 783 s.
With `O=C(CNc1ccccc1)Nc1nc(-c2ccccc2)cs1` the RP-LC retention time was 637 s.
`O=C(Nc1ccc(OC2CCNCC2)nc1)C1(c2ccccc2)CC1` gave an RP-LC retention time of 646 s.
For `Cc1ccc(CNC(=O)c2c(-c3cccc(Br)c3)noc2C)o1`, the RP-LC retention time was 987 s.
Work on `O=C1CCCc2cc(S(=O)(=O)N3CCC(C(=O)Nc4ccc(F)cc4)CC3)ccc2N1` yielded an RP-LC retention time of 749 s.
In the case of `CS(=O)(=O)N1CCC(C(=O)NCC(O)c2ccc(C(F)(F)F)cc2)CC1` (stereo unspecified), the RP-LC retention time is reported as 652 s.
Compound `Cc1ccc2cc(CCC(=O)NCCCN3CCCC(C)C3)c(=O)[nH]c2c1` (stereo unspecified) has an RP-LC retention time of 605 s.
For `CC(C)NC(=O)NC1CCN(c2ccc(F)cc2)C1=O` (stereo unspecified), the RP-LC retention time was 659 s.
In the case of `Cc1ccc(-n2nc(N3CCCN(S(=O)(=O)c4ccccc4F)CC3)ccc2=O)cc1C`, the RP-LC retention time is reported as 914 s.
For `CCN1C(=O)c2cccnc2Sc2cc(NC(=O)c3ccc(C(C)C)cc3)ccc21`, the RP-LC retention time was 998 s.
`COc1ccc2[nH]cc(CCNC(=O)c3cc(C)nc4c3c(=O)n(C)c(=O)n4C)c2c1` gave an RP-LC retention time of 699 s.
With `Cc1cc(C)n(Cc2c(C(=O)NCC34CCC=C3N(C)C(=O)CC4)noc2C)n1` (stereo unspecified) the RP-LC retention time was 749 s.
For `CC1CS(=O)(=O)N(c2ccc(C(=O)NCCc3c[nH]c4ccccc34)c(Cl)c2)C1=O` (stereo unspecified), the RP-LC retention time was 809 s.
`CCn1cc(-c2nc(C)c(C(=O)Nc3ccc(N4CCOCC4)cc3)s2)c2cccnc21` showed an RP-LC retention time of 863 s.
For `CC1(C(=O)NCc2cccc(Cl)c2)Oc2cccnc2NC1=O` (stereo unspecified), the RP-LC retention time was 723 s.
For `O=C(Cc1cccs1)Nc1onc2c1CCCC2`, the RP-LC retention time was 730 s.
With `COCCCNC(=O)c1ccc(-c2cnc(NC3CCCCC3)nc2)cc1` the RP-LC retention time was 806 s.
Compound `Cc1nnc(C2CCCCCN2C(=O)c2occc2C)o1` (stereo unspecified) has an RP-LC retention time of 718 s.
Compound `COc1cc(-c2nnc(-c3cccc(S(=O)(=O)N4CCC(C)CC4)c3)o2)cc(OC)c1OC` has an RP-LC retention time of 755 s.
Compound `O=C(CN1C(=O)CCCc2cc(S(=O)(=O)N3CCCC3)ccc21)Nc1cccc(Cl)c1` has an RP-LC retention time of 890 s.
`Cc1cc(C)cc(-n2ccn(Cc3nc(-c4ccc(Cl)cc4)no3)c(=O)c2=O)c1` gave an RP-LC retention time of 960 s.
`Cc1cc(C)cc(C(=O)NC2(c3nc(-c4ccccc4)no3)CCCCC2)c1` gave an RP-LC retention time of 1280 s.
For `O=C(NCC(O)(c1ccccc1)C(F)(F)F)NC1CCCCC1` (stereo unspecified), the RP-LC retention time was 879 s.
Compound `Cc1ccc(S(=O)(=O)N2CCC3(CC2)NCCN=C3NCc2ccccc2F)cc1C` has an RP-LC retention time of 750 s.
In the case of `O=C(NCCc1cccs1)c1ccc2ccnc(N3CCN(c4ccc(Cl)cc4)CC3)c2c1`, the RP-LC retention time is reported as 931 s.
Compound `COc1cccc(C(=O)CC2(O)C(=O)Nc3ccc(F)cc32)c1` (stereo unspecified) has an RP-LC retention time of 707 s.
In the case of `Cc1nc(CCNC(=O)C(C)(C)C)no1`, the RP-LC retention time is reported as 619 s.
Compound `O=C(CN1CCCCCC1)N1CCC2(CCC2O)CC1` (stereo unspecified) has an RP-LC retention time of 555 s.
With `Cc1[nH]c(C(=O)Nc2cccc(F)c2)c(C)c1S(=O)(=O)N1CCCC1` the RP-LC retention time was 880 s.
Compound `O=C(Cc1cccc2ccccc12)NCC1CCN(Cc2cccs2)CC1` has an RP-LC retention time of 572 s.
`COCCCNC(=O)C1CCN(c2nnc(-c3ccccc3)o2)CC1` gave an RP-LC retention time of 659 s.
Work on `O=c1c2c(CO)c(-c3ccccc3)nn2ccn1Cc1ccccc1` yielded an RP-LC retention time of 896 s.
`C#CCOCC(O)CN1CCN(C(c2ccccc2)c2ccccc2)CC1` (stereo unspecified) gave an RP-LC retention time of 606 s.
With `O=C(CSc1ncn[nH]1)c1ccc2c(c1)OCCO2` the RP-LC retention time was 626 s.
Compound `COc1ccc(-c2nn3c(COc4ccc(Br)cc4)nnc3s2)cc1OC` has an RP-LC retention time of 980 s.
Compound `CN(C)c1ccc(-c2nc3ncccn3c2Nc2ccccc2)cc1` has an RP-LC retention time of 687 s.
Work on `CCCn1c(=O)c(C)nc2cc(-c3noc(COc4ccc(OC)cc4)n3)ccc21` yielded an RP-LC retention time of 1040 s.
In the case of `O=C(NC1CC1)C1CC(=O)N(c2ccc3c(c2)CCN3C(=O)C2CCC2)C1` (stereo unspecified), the RP-LC retention time is reported as 660 s.
In the case of `O=C(CNC(=O)c1ccc(=O)[nH]c1)Nc1ccc(-n2cnnn2)cc1`, the RP-LC retention time is reported as 544 s.
For `Cc1ccc(CNC(=O)c2nnc(-c3ccc(S(=O)(=O)N4CCOCC4)cc3)o2)o1`, the RP-LC retention time was 820 s.
`O=C(Nc1nnc(C2CCCCC2)o1)c1c[nH]c2ccccc12` showed an RP-LC retention time of 714 s.
`O=C(CN1CCN(C(=O)Nc2ccccc2)CC1=O)NC1CCCCCC1` showed an RP-LC retention time of 721 s.
Work on `CCc1cc(-c2csc(S(=O)(=O)NCCCN3CCN(c4ccccc4)CC3)c2)on1` yielded an RP-LC retention time of 736 s.
Compound `CCC(C)NC(=O)c1nc(Cn2c(=O)oc3ccc(Cl)cc32)no1` (stereo unspecified) has an RP-LC retention time of 922 s.
`Cc1ccc(C(=O)N2CCN(c3cc(-c4cccs4)[nH]n3)CC2)c(C)c1` showed an RP-LC retention time of 831 s.
Work on `COc1ccc(-c2ncc3c(n2)CCN(C(=O)Nc2cccc(C)c2C)C3)cc1` yielded an RP-LC retention time of 894 s.
`Cc1cc(C(=O)NCc2ccccc2)nc2cc(-c3cccs3)nn12` gave an RP-LC retention time of 1080 s.
In the case of `CCN(CC)C(=O)c1ccc2c(c1)N(CC(=O)NC1CCCCC1)C(=O)CO2`, the RP-LC retention time is reported as 724 s.
